The record followed here is PubChem BioAssay (NCI).

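Each compound was tested at five concentrations against cells in 96-well plates for 48 hours. Here, GI50 denotes the concentration required for 50% inhibition of growth. TGI denotes the concentration required for complete inhibition of growth.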

What all share (experiment): inhibition of tumour cell growth, NCI panel, 48 h
For assay [1], the system named is A549 NSCLC.
Assay [2] has as its system HCT-15 colon.
The test system of assay [3] is SK-MEL-2 melanoma.
For assay [4], the system named is OVCAR-8 ovarian.
For assay [5], the system named is IGROV1 ovarian.
Assay [6] has as its system SK-OV-3 ovarian.
For assay [7], the system named is RXF 393 renal.
Assay [8] concerns U251 CNS.
The subject of assay [9] is SK-MEL-28 melanoma.
Assay [10] has as its system A498 renal.
In assay [11] the test system is UACC-257 melanoma.
Assay [12] has as its system SF-295 CNS.

On to `C[P+](c1ccccc1)(c1ccc(Cl)cc1)c1ccc(Cl)cc1`, for which the TGI in assay [1] was more than 100 µM; in [2], more than 100 µM; in assay [3], 46.3 µM; in [4], 36.6 µM; in assay [5], 21.8 µM; in [6], more than 100 µM. The TGI was more than 100 µM in [7]; 39.3 µM in assay [8]; 29 µM in [9]; 98.3 µM in assay [10]; 32.6 µM in [11].
For `C[n+]1c2ccccc2c(CNCC(=O)O)c2ccccc21`, the TGI in assay [1] was 13.1 µM; in [2] it was 4.94 µM; in assay [3], 12.6 µM; in assay [4] it was 7.84 µM; in assay [5] it was 22.6 µM; in assay [6] it was 15.7 µM. The TGI in [7] stood at 6.5 µM; in assay [12] it was 17.2 µM; in assay [8], 12.5 µM; in assay [10], 7.43 µM; in assay [11], 23.8 µM.
Turning to `c1ccc(-c2n(Cc3ccc4ccccc4c3)c3ccccc3[n+]2Cc2ccc3ccccc3c2)cc1`, the GI50 in [2] was 1.39 µM; in [6] it was 0.309 µM; in [12] it was 0.306 µM; in assay [9] it was 0.359 µM; in assay [10], less than 0.043 µM. Further, the TGI in assay [2] came to 2.91 µM; in assay [6], 1.08 µM; in assay [12], 1.11 µM; in assay [9], 1.31 µM; in [10] it was 0.933 µM.
As to `O=C(Nc1ccc(Cl)cc1)c1cc([N+](=O)[O-])ccc1O`, the TGI in [1] is more than 96.2 µM; in assay [2] it was 28.6 µM; in assay [3], 11.3 µM; in assay [4], 30.7 µM; in assay [5], 69.5 µM; in assay [6], 25.4 µM. The TGI in assay [7] was 6.64 µM; in assay [12], 30.4 µM; in assay [8], more than 70.7 µM; in assay [9], 15.6 µM; in [10], 11.2 µM; in [11] it was 16.7 µM.
For the compound `C=CCNC1=C2C[C@@H](C)C[C@H](OC)[C@H](O)[C@@H](C)/C=C(\C)[C@H](OC(N)=O)[C@@H](OC)/C=C\C=C(/C)C(=O)NC(=CC1=O)C2=O`, the TGI came to 17.8 µM in assay [1]; 24.5 µM in assay [2]; 19.1 µM in [3]; 46 µM in [4]; 15.1 µM in assay [5]; 58.8 µM in assay [6]. The TGI is 10.1 µM in [7]; 7.46 µM in assay [12]; 49.5 µM in assay [8]; 32.5 µM in assay [9]; 30 µM in [10]; 21.3 µM in assay [11].
As for `NC(CCP(=O)(O)O)C(=O)O` (stereo not drawn), the TGI in [1], in [2], in assay [3], in [4], in assay [5] and in [7] was more than 100 µM in each case. Also, the TGI in [12], in assay [8], in assay [9], in assay [10] and in [11] was more than 100 µM in each case.
Regarding `O=C1c2cccc(O)c2C(=O)c2c(O)cccc21`, the TGI in assay [1], in assay [2], in assay [3], in assay [4], in [5] and in assay [6] was more than 100 µM in each case. The TGI in [7], in assay [12], in assay [8], in [9], in assay [10] and in assay [11] was more than 100 µM in each case.
In the case of `CCCCSCC(NC(=O)/C=C/c1c(C)[nH]c(=O)[nH]c1=O)C(=O)OC` (stereo not drawn), the TGI is 401 µM in assay [1]; more than 450 µM in assay [2]; 121 µM in [3]; 246 µM in assay [4]; 316 µM in assay [5]; 226 µM in assay [6]. Further, the TGI in [7] was 267 µM; in assay [12], 272 µM; in [8], 147 µM; in [9], 317 µM; in assay [10] it was 224 µM; in assay [11], 235 µM.
Take `N=C(N)c1ccc(-c2ccc(-c3ccc4ccccc4c3)s2)s1`: the GI50 was 1.69 µM in assay [2]; 2.52 µM in assay [3]; 20.2 µM in assay [6]; 2.27 µM in [12]; 2.25 µM in [9]; 1.7 µM in assay [10]. The GI50 in [11] is 16.1 µM. The TGI in assay [2] amounted to 3.29 µM; in assay [3], 5.7 µM; in [6], 42.3 µM; in assay [12], 5.99 µM; in assay [9] it was 6.02 µM; in [10], 10.5 µM. The TGI in assay [11] was found to be 31.2 µM.
Take `CS(=O)(=O)c1ccc2nc(-c3ccc(O)cc3)sc2c1`: the TGI was 34.3 µM in assay [1]; 31.7 µM in [2]; 36.3 µM in assay [3]; 42.7 µM in assay [4]; 34.9 µM in assay [5]; 31.3 µM in assay [6]. Besides, the TGI amounted to 32.9 µM in assay [7]; 30.3 µM in [12]; 39.5 µM in assay [8]; 31.2 µM in [10]; 38.9 µM in assay [11].
Turning to `CN(C)CCOc1cc2c(c3ccccc13)-c1ccccc1C2O` (stereo not drawn), the TGI in assay [1] came out at 29.3 µM; in assay [2] it was 25.5 µM; in assay [3], 31.4 µM; in [4], 24.7 µM; in assay [5] it was 32.4 µM; in assay [6], 30.1 µM. Moreover, the TGI was found to be 10.1 µM in [7]; 48.7 µM in [12]; 28.9 µM in [8]; 30.2 µM in assay [9]; 29.8 µM in assay [10]; 29.4 µM in assay [11].
As for `CC1C[C@]2(C[C@@H](C)C(=O)O2)OC2CC3(C)C4CCC5C(C)(C)OC(=O)CC[C@@]56C[C@@]46CC[C@]3(C)C12` (stereo partly drawn), the TGI in assay [1], in assay [2], in assay [3], in assay [4], in assay [5] and in assay [7] was more than 100 µM each time. Further, the TGI in [12], in [8], in assay [9], in assay [10] and in [11] was more than 100 µM in each case.
As to `C=CCOCCC(CC=C)C(=O)CC(=O)OC` (stereo not drawn), the TGI in [1], in assay [2], in assay [3], in assay [4], in assay [5] and in [6] was more than 100 µM throughout. Moreover, the TGI in assay [7], in assay [12], in assay [8], in assay [9], in assay [10] and in [11] was more than 100 µM in each case.
With `NC(=O)c1ccc([N+](=O)[O-])cc1`, the TGI in assay [1], in assay [2], in assay [3], in [4], in assay [5] and in [6] was more than 100 µM each time. The TGI in assay [7], in [12], in assay [8], in [9], in assay [10] and in assay [11] was more than 100 µM throughout.
